Consider 1 compound from patent US20090318492A1, “INDOLE COMPOUNDS HAVING C4-ACIDIC SUBSTITUENTS AND USE THEREOF AS PHOSPHOLIPASE-A2 INHIBITORS” (priority 2005, published 2009).

For data set [1] the following is noted: predicted to survive passage through the stomach; cited from earlier work.
The next data set has as its target human PLA2 IB enzyme (Homo sapiens, UniProt P04054). Conditions: versus the human PLA2 IB enzyme; Singer, Ghomashchi et al. 2002; cited from earlier work.
Another data set deals with mouse PLA2 IB enzyme (Mus musculus, UniProt Q9Z0Y2). Conditions: versus the mouse PLA2 IB enzyme; Singer, Ghomashchi et al. 2002; cited from earlier work.
Sequence of mouse PLA2 IB enzyme (Q9Z0Y2 23-146): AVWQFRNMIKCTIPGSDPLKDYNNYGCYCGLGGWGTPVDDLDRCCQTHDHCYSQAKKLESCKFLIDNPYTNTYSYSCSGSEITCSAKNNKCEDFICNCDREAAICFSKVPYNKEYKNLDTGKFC
A short description of data set [2]: Example 6C pharmokinetic study of ILY-4001 (IV and oral). The following applies: 30 mg/kg oral. It is filed as in vivo, mice. The text has this: This example characterized ILY-4001 [2-(3-(2-amino-2-oxoacetyl)-1-(biphenyl-2-ylmethyl)-2-methyl-1H-indol-4-yloxy)acetic acid], alternatively referred to herein as methyl indoxam, with respect to activity, as determined by IC50 assay (Example 6A), with respect to cell absorbtion, as determined by in-vitro Caco-2 assay (Example 6B) and with respect to bioavailability, as determined using in-vivo mice studies (Example 6C).
This example evaluated the bioavailability of ILY-4001 [2-(3-(2-amino-2-oxoacetyl)-1-(biphenyl-2-ylmethyl)-2-methyl-1H-indol-4-yloxy)acetic acid], alternatively referred to herein as methyl indoxam. […]
Bioavailability was calculated as a ratio of AUC-oral/AUC-intravenous (IV). To determine this ratio, a first set of subject animals were given a measured intravenous (IV) dose of ILY-4001, followed by a determination of ILY-4001 levels in the blood at various time points after administration (e.g., 5 minutes through 24 hours). Another second set of animals was similarly dosed using oral administration, with blood levels of ILY-4001 determined at various time points after administration (e.g., 30 minutes through 24 hours). The level of ILY-4001 in system to circulation were determined by generally accepted methods (for example as described in Evans, G., A Handbook of Bioanalysis and Drug Metabolism. Boca Raton, CRC Press (2004)). […]

The test system of data set [3] is C57BL/6 (wt) mice on high fat/high sucrose diabetogenic diet. As to the kind of experiment: Example 5 in-vivo evaluation in mice on high fat/high sucrose diabetogenic diet. More on the design: species or system mouse. The following applies: for body weight gain compared to wild-type control group: week 4 and week 10; for plasma levels of cholesterol / plasma levels of triglycerides: 10 weeks. Here is the method: ILY-4001 (FIG. 2) was evaluated as a PLA2 IB inhibitor in a set of experiments using wild-type mice and genetically deficient PLA2 (−/−) mice (also referred to herein as PLA2 knock-out (KO) mice). In these experiments, wild-type and PLA2 (−/−) mice were maintained on a high fat/high sucrose diet, details of which are described below.
Briefly, four groups were set up, each having six mice. Three of the groups included six wild-type PLA2 (+/+) mice in each group (eighteen mice total), and one of the groups included six genetically deficient PLA2 (−/−) mice. One of the wild-type groups was used as a wild-type control group, and was not treated with ILY-4001. The other two wild-type groups were treated with ILY-4001-one group at a lower dose (indicated as “L” in Table 1) of 25 mg/kg/day, and the other at a higher dose (indicated as “H” in Table 1) of 90 mg/kg/day. The group comprising the PLA2 (−/−) mice was used as a positive control group.
The experimental protocol used in this study was as follows. The four groups of mice, including wild type and isogenic PLA2 (−/−) C57BL/J mice were acclimated for three days on a low fat/low carbohydrate diet. After the three day acclimation phase, the animals were fasted overnight and serum samples taken to establish baseline plasma cholesterol, triglyceride, and glucose levels, along with baseline body weight. The mice in each of the treatment groups were then fed a high fat/high sucrose diabetogenic diet (Research Diets D12331). 1000 g of the high fat/high sucrose D12331 diet was composed of casein (228 g), DL-methionine (2 g), maltodextrin 10 (170 g), sucrose (175 g), soybean oil (25 g), hydrogenated coconut oil (333.5 g), mineral mix S10001 (40 g), sodium bicarbonate (10.5 g), potassium citrate (4 g), vitamin mix V10001 (10 g), and choline bitartrate (2 g). This diet was supplemented with ILY-4001 treatments such that the average daily dose of the compound ingested by a 25 g mouse was: 0 mg/kg/day (wild-type control group and PLA2 (−/−) control group); 25 mg/kg/day (low-dose wild-type treatment group), or 90 mg/kg/day (high-dose wild-type treatment group). The animals were maintained on the high fat/high sucrose diet, with the designated ILY-4001 supplementation, for a period of ten weeks.
Body weight measurements were taken for all animals in all treatment and control groups at the beginning of the treatment period and at 4 weeks and 10 weeks after initiation of the study. (See Example 5A). Blood draws were also taken at the beginning of the treatment period (baseline) and at 4 weeks and 10 weeks after initiation of the study, in order to determine fasting glucose (See Example 5B). Cholesterol and triglyceride levels were determined from blood draws taken at the beginning of the treatment (baseline) and at ten weeks. (See Example 5C).

Another data set has as its system Caco-2 cells. Description: Example 6B Caco-2 permeability study. It is filed as in vitro ADME, human. The following applies: based on Caco-2 assays and pharmokinetic studies. Here is the method:
The culture medium was refreshed every 48 hours.
Papp=(dQ/dt)×(1/C0)×(1/A)
On the technique in general: Caco-2 monolayers are a common model of the intestinal barrier.

Sequence of human PLA2 IB enzyme (P04054 23-148): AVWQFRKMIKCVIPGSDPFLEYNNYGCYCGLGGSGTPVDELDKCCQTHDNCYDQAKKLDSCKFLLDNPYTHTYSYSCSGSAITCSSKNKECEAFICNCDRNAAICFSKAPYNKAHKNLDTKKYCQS

`Cc1c(C(=O)C(N)=O)c2c(OCC(=O)O)cccc2n1Cc1ccccc1-c1ccccc1` [ILY-4001, 2-(3-(2-amino-2-oxoacetyl)-1-(biphenyl-2-ylmethyl)-2-methyl-1H-indol-4-yloxy)acetic acid]: in data set [1], the “stability at low pH” value is “stable at low pH”. The IC50 (as a rule, the midpoint of a concentration-inhibition curve) is about 0.2 µM at human PLA2 IB enzyme and about 0.15 µM at mouse PLA2 IB enzyme. Also, in data set [2], the “level of non-absorption from the GI tract into systemic circulation” value is about 72%. Also, the “body weight gain compared to wild-type control group” value in data set [3] (25 mg/kg/d in diet) and in data set [3] (90 mg/kg/d in diet) was “significantly reduced body weight gains” each time. The “plasma levels of cholesterol” value in data set [3] (high dose (90 mg/kg/day)) and in data set [3] (low dose (25 mg/kg/day)) was “substantially reduced” each time. Besides, the “plasma levels of triglycerides” value in data set [3] (high dose (90 mg/kg/day)) and in data set [3] (low dose (25 mg/kg/day)) was “substantially reduced” throughout. Also, the fasting glucose levels entry in data set [3] (low dose (25 mg/kg/day), week four) is given as “moderately beneficial effect”; in data set [3] (low dose (25 mg/kg/day), week ten) it was “beneficial effect was not observed”. In addition, in the data set on Caco-2 cells, the “absorbtion from the GI lumen” value is reported as “relatively low absorbtion”.
